Assay results published in patent publication US8354430B2, “Monohydrochloride salt of 1-[3-[3-(4-chlorophenyl) propoxy]propyl]-piperidine” (priority 2005, dated 2013).

Columns and labels:
[1] = Stability to oxidation conditions (melting points under nitrogen and oxygen atmosphere); type: physicochemical
Procedure: Melting points of the above salts were also determined under nitrogen and oxygen atmosphere, in order to verify their stability to oxidation conditions.

[2] = Aqueous solubility at 23° C.; type: physicochemical; conditions: water
Excerpt: The use of 1-[3-[3-(4-chlorophenyl)propoxy]propyl]-piperidine as the free base is limited because of its oily nature.

[3] = physchem
[4] = Solubility of salts in water at room temperature, pH 4.5 and pH 7.4
[5] = tested on: mice; assay: Natural forgetting, two-trial object recognition; type: in vivo, mouse; conditions: tacrine 0.25 mg/kg, i.p. after T1
Procedure: Methods: Mice were submitted to the first trial (T1), placed in the box containing two identical objects and the time required by each animal to complete 8 sec of object exploration was determined. Exploration was considered to be directing the nose at a distance closer than 2 cm to the object and/or touching the object. Immediately after the first trial mice were treated with the vehicle or tacrine (0.25 mg/kg, i.p.). […] Mice were placed in the box for 5 min and exploration of each object together with motor activity was determined. The following parameters were measured: […]

Row | Compound | Melting point, N2 atmosphere (stability to oxidation conditions) [1] [°C] | Melting point, O2 atmosphere (stability to oxidation conditions) [1] [°C] | solubility [2] [mg/mL] | solubility ([3]; pH 4.5, aqueous buffer) [mg/mL] | solubility ([3]; pH 7.4, aqueous buffer) [mg/mL] | solubility ([3]; water) [mg/mL] | Solubility (% w/v) pH 4.5 ([4]; pH 4.5) [% w/v] | Solubility (% w/v) pH 7.4 ([4]; pH 7.4) [% w/v] | Solubility (% w/v) Water room T ([4]; water at room temperature) [% w/v] | natural forgetting [5]
1 | Hydrogen maleate | 90.85 | 90.74 |  |  |  |  |  |  |  | 
2 | Clc1ccc(CCCOCCCN2CCCCC2)cc1.O=C(O)C(=O)O [Hydrogen oxalate, 1-[3-[3-(4-chlorophenyl)propoxy]propyl]-piperidine oxalate, reference compound] | 149.16 | 149.28 | 25 | 10 to 30 | 30 to 100 | 10 to 30 |  |  |  | 
3 | Clc1ccc(CCCOCCCN2CCCCC2)cc1 [Hydrogen succinate] | 63.21 | 63.46 |  |  |  |  | >100 | >100 | >100 | 
4 | Nc1c2c(nc3ccccc13)CCCC2 [tacrine, reference compound] |  |  |  |  |  |  |  |  |  | significantly reduced
